The values below come from patent publication US5416081A, “Cephalosporin compounds” (Lucky Limited, priority 1992, dated 1995).

Common to all, as to type: cell-based
The subject of one assay is E. coli/3190Y. Put plainly: MIC against standard strain by two-fold agar dilution, E. coli/3190Y. As to conditions: Escherichia coli; E. coli/3190Y; Muller-Hinton agar, 37° C., 20 hours; read-out: MIC. On the procedure:
(§1) These MIC values were taken by employing a two-fold dilution method: that is, two-fold serial dilutions of each of the test compounds were made and dispersed in a Muller-Hinton agar medium; 2 μl of the standard test strain which had the 10^7 CFU(Colony Forming Unit) per ml was inoculated on the medium; and these were incubated at 37° C. for 20 hours.
On the technique in general: In agar dilution the substance is mixed into plates at graded concentrations.

The next assay has as its system E. coli TEM5/3739E. Put plainly: MIC against standard strain by two-fold agar dilution, E. coli TEM5/3739E. The conditions noted are these: Escherichia coli, 20 h. On the procedure:
as §1

Another assay has as its system E. coli/10536. Put plainly: MIC against standard strain by two-fold agar dilution, E. coli/10536. The conditions noted are these: Escherichia coli; E. coli/10536; Muller-Hinton agar, 37° C., 20 hours; read-out: MIC. On the procedure: as §1
The test system of a further assay is P. aeruginosa/1912E. Nature of the assay: MIC against standard strain by two-fold agar dilution, P. aeruginosa/1912E. As to conditions: Pseudomonas aeruginosa; P. aeruginosa/1912E; Muller-Hinton agar, 37° C., 20 hours; read-out: MIC. On the procedure:
as §1

The test system of the next assay is E. coli TEM1/1193E. Nature of the assay: MIC against standard strain by two-fold agar dilution, E. coli TEM1/1193E. As to conditions: Escherichia coli, 20 h. On the procedure: as §1
The test system of the next assay is S. aureus/giorigio. Put plainly: MIC against standard strain by two-fold agar dilution, S. aureus/giorigio. The conditions noted are these: Staphylococcus aureus; S. aureus/giorigio; Muller-Hinton agar, 37° C., 20 hours; read-out: MIC. On the procedure: as §1
The next assay has as its system E. cloacae/1194E. Nature of the assay: MIC against standard strain by two-fold agar dilution, E. cloacae/1194E. The conditions noted are these: Enterobacter cloacae; E. cloacae/1194E; Muller-Hinton agar, 37° C., 20 hours; read-out: MIC. On the procedure: as §1
The next assay has as its system S. marcescens/1826E. Put plainly: MIC against standard strain by two-fold agar dilution, S. marcescens/1826E. The conditions noted are these: Serratia marcescens; S. marcescens/1826E; Muller-Hinton agar, 37° C., 20 hours; read-out: MIC. On the procedure: as §1
In a further assay the test system is P. aeruginosa/6065Y. Put plainly: MIC against standard strain by two-fold agar dilution, P. aeruginosa/6065Y. As to conditions: Pseudomonas aeruginosa; P. aeruginosa/6065Y; Muller-Hinton agar, 37° C., 20 hours; read-out: MIC. On the procedure:
as §1

Another assay has as its system S. typhimunium/14028A. Put plainly: MIC against standard strain by two-fold agar dilution, S. typhimunium/14028A. As to conditions: S. typhimunium/14028A; Muller-Hinton agar, 37° C., 20 hours; read-out: MIC. On the procedure: as §1
In a further assay the test system is S. aureus/6538pA. Nature of the assay: MIC against standard strain by two-fold agar dilution, S. aureus/6538pA. The conditions noted are these: Staphylococcus aureus; S. aureus/6538pA; Muller-Hinton agar, 37° C., 20 hours; read-out: MIC. On the procedure: as §1
Another assay relates to A. calcoaceticus /15473A. Nature of the assay: MIC against standard strain by two-fold agar dilution, A. calcoaceticus /15473A. The conditions noted are these: Acinetobacter calcoaceticus; A. calcoaceticus /15473A; Muller-Hinton agar, 37° C., 20 hours; read-out: MIC. On the procedure:
as §1

A further assay has as its system E. coli TEM9/2639E. Nature of the assay: MIC against standard strain by two-fold agar dilution, E. coli TEM9/2639E. The conditions noted are these: Escherichia coli, 20 h. On the procedure: as §1
A further assay concerns P. aeruginosa/10145. Nature of the assay: MIC against standard strain by two-fold agar dilution, P. aeruginosa/10145. The conditions noted are these: Pseudomonas aeruginosa; P. aeruginosa/10145; Muller-Hinton agar, 37° C., 20 hours; read-out: MIC. On the procedure:
as §1

A further assay concerns S. aureus/77. Nature of the assay: MIC against standard strain by two-fold agar dilution, S. aureus/77. The conditions noted are these: Staphylococcus aureus, 20 h. On the procedure: as §1
For another assay, the system named is K. aerogenes/1776E. Put plainly: MIC against standard strain by two-fold agar dilution, K. aerogenes/1776E. As to conditions: Klebsiella aerogenes; K. aerogenes/1776E; Muller-Hinton agar, 37° C., 20 hours; read-out: MIC. On the procedure:
as §1

≈ marks a conversion by molar mass, not a printed value.

For the compound `C[n+]1c(SCC2=C(C(=O)[O-])N3C(=O)C(NC(=O)/C(=N\OC(C)(C)C(=O)O)c4csc(N)n4)C3SC2)nc(N)c2c1CCC2` (stereo not shown) [Compound I-2, 7-[(Z)-2-(2-aminothiazol-4-yl)-2-(2-carboxyprop-2-oxyimino)acetamido]-3-(4-amino-1-methyl-1,5,6,7-tetrahydro-cyclopentapyrimidinium-2-yl)thiomethyl-3-cephem-4-carboxylate], the MIC was 0.063 µg/mL (≈ 0.0971 µM) with E. coli/3190Y; 0.5 µg/mL (≈ 0.771 µM) against E. coli TEM5/3739E; 0.13 µg/mL (≈ 0.2 µM) in the assay on E. coli/10536; 0.5 µg/mL (≈ 0.771 µM) in the assay with P. aeruginosa/1912E; 0.13 µg/mL (≈ 0.2 µM) with E. coli TEM1/1193E; 1 µg/mL (≈ 1.54 µM) with S. aureus/giorigio. Besides, the MIC in the assay on E. cloacae/1194E is 4 µg/mL (≈ 6.17 µM); in the assay on S. marcescens/1826E, 0.5 µg/mL (≈ 0.771 µM); in the assay on P. aeruginosa/6065Y it was 4 µg/mL (≈ 6.17 µM); with S. typhimunium/14028A, 0.25 µg/mL (≈ 0.385 µM); in the assay with S. aureus/6538pA it was 2 µg/mL (≈ 3.08 µM); with A. calcoaceticus /15473A, 1 µg/mL (≈ 1.54 µM). Besides, the MIC against E. coli TEM9/2639E came out at 2 µg/mL (≈ 3.08 µM); with P. aeruginosa/10145 it was 1 µg/mL (≈ 1.54 µM); against S. aureus/77, 8 µg/mL (≈ 12.3 µM); in the assay with K. aerogenes/1776E, 0.13 µg/mL (≈ 0.2 µM).

Usually MIC stands for the least concentration at which growth counts as inhibited.
